Laboratory results published in US8632759B2, “Hair restorer” (Cosmo Oil Co., Ltd., priority 2004, dated 2014).

Test system: C3H/HeNCrJ mice
Assay: Hair growth test on clipped backs of mice
Format: in vivo
Settings: C3H/HeNCrJ mice in telogen phase, n=3; 0.2 ml sprayed on clipped back once a day; hair measured under microscope
Text: In Table 1,5-aminolevulinic acid (sometimes abbreviated as ALA) of the present invention and iron compounds, and the blend compositions of them and urea are shown in wt %. For 1 g of ALA, 0.4 g of ferrous citrate, 2.81 g of iron lactate, 5.7 g of iron sodium diethylenetriaminepentaacetate, 5.6 g of iron ammonium diethylenetriaminepentaacetate, and 0.36 g of ferrous gluconate were blended respectively. The body hair on the backs of C3H/HeNCrJ mice (n=3 in each group), which were in telogen phase of hair growth cycle, was clipped with a hair clipper, and each suspension shown in Table 1 was applied to the back once a day, in an amount of 0.2 ml, by spraying uniformly.
In addition, photographs of the backs of mice on which the sample No. 8 of the present invention, 5% minoxidil (positive control), and distilled water (negative control) were respectively applied were taken 20 days after the application.

| SMILES | Hair Length after 2 weeks [mm] |
| --- | --- |
| Nc1cc(N2CCCCC2)nc(N)[n+]1[O-] [5% Minoxidil, 6-(1-piperidinyl)-2,4-pyrimidinediamine-3-oxide] | 1.70 |
| NCC(=O)CCC(=O)O [Control, 5-aminolevulinic acid] | 1.08 |
